How the values were obtained:
CSNK1A1 = CSNK1A1 (Homo sapiens (Human), UniProt P48729); assay: CSNK1A1 Assay 2 (ADP-Glo, 1 μM ATP); assay type: biochemical; settings: median, read-out: CSNK1A1 Assay 2 IC50 [mol/l] (median)
How it was run: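 Enzyme (~0.0375 ng/μL) preincubated 15 min at 22° C with compound in HEPES pH 7.5 buffer, then reacted with 1 μM ATP and biotin-Ahx-KRRRAL-pS-VASLPGL peptide. ADP product measured by ADP-Glo luminescence after 1 h ATP depletion and 1 h detection at 22° C.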

CSNK1D = CSNK1D (Homo sapiens (Human), UniProt P48730); assay: CSNK1D Assay (ADP-Glo, 1 μM ATP); assay type: biochemical; settings: median, read-out: CSNK1D IC50 [mol/l] (median)
Chain of CSNK1D (P48730 whole entry): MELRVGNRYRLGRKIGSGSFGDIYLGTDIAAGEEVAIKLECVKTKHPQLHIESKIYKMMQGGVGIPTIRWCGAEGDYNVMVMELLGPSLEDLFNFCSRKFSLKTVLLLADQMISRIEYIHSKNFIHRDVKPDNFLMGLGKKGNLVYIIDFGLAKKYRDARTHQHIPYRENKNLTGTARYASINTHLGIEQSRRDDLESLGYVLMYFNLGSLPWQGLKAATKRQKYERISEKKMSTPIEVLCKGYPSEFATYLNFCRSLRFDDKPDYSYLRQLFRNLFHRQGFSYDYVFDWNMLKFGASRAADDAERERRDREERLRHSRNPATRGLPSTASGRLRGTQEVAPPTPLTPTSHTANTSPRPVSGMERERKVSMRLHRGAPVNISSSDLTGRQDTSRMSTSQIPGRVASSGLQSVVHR
Description: CSNK1D-inhibitory activity of compounds of the present invention in presence of 1 μM adenosine-tri-phosphate (ATP) was quantified employing the CSNK1 D assay as described in the following paragraphs. In essence, the enzyme activity is measured by quantification of the adenosine-di-phosphate (ADP), which is generated as a co-product of the enzyme reaction, via the “ADP-Glo™ Kinase Assay” kit from the company Promega. This detection system works as follows: In a first step the ATP not consumed in the kinase reaction is quantitatively converted to cAMP employing an adenylate cyclase (“ADP-Glo-reagent”), then the adenylate cyclase is stopped and the ADP generated in the kinase reaction converted to ATP which generates in a luciferase-based reaction a glow-luminescence signal (“Kinase Detection Reagent”).
As substrate for the kinase reaction the biotinylated peptide Btn-Ahx-[…] (C-terminus in amide form) was used which can be purchased e.g. from the company Biosyntan (Berlin-Buch, Germany).
For the assay 50 nl of a 100 fold concentrated solution of the test compound in DMSO was pipetted into a white 1536-well microtiter plate (Greiner Bio-One, Frickenhausen, Germany), 2 μL of a solution of CSNK1D in aqueous assay buffer [50 mM HEPES pH 7.5, 10% (v/v) glycerol, 10 mM MgCl2, 50 mM NaCl, 1 mM dithiothreitol, 0.01% (w/v) bovine serum albumin, 0.01% (v/v) Triton X-100] were added and the mixture was incubated for 15 min at 22° C. to allow pre-binding of the test compounds to the enzyme before the start of the kinase reaction. […] The concentration of CSNK1D was adjusted depending of the activity of the enzyme lot and was chosen appropriate to have the assay in the linear range, a typical concentration is about 0.5 ng/μL. The reaction was stopped by the addition of 2.5 μL of “ADP-Glo-reagent” (1:1.5 fold diluted with water) and the resulting mixture was incubated at 22° C. for 1 h to convert the ATP not consumed in the kinase reaction completely […]. Subsequently 2.5 μL of the “kinase detection reagent” (1.2 fold more concentrated than recommended by the producer) were added, the resulting mixture was incubated at 22° C. for 1 h and then the luminescence measured with a suitable measurement instrument (e.g. Viewlux™ from Perkin-Elmer). The amount of emitted light was taken as a measure for the amount of ADP generated and thereby for the activity of the CSNK1D.

Chain of CSNK1A1 (P48729 whole entry): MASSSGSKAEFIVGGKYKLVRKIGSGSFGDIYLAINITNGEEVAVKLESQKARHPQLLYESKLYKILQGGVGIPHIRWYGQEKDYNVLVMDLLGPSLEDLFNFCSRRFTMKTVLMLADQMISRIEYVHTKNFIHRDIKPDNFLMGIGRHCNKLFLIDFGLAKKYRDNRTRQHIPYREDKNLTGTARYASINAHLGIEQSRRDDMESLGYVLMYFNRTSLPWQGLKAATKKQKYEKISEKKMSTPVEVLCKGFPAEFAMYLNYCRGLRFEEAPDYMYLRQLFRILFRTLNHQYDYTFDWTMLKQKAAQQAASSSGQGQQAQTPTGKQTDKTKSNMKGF

SMILES | IC50 (CSNK1A1) [nM] | IC50 (CSNK1D) [nM]
CN1C(=O)c2c([nH]c(-c3ccnc(NC(=O)C(CC(F)F)c4ccc(F)cc4)c3)c2-c2ccccc2)CC12CCC2 (racemic) [Example 49, 4,4-difluoro-2-(4-fluorophenyl)-N-[4-(5′-methyl-4′-oxo-3′-phenyl-1′,4′,5′,7′-tetrahydrospiro[cyclobutane-1,6′-pyrrolo[3,2-c]pyridin]-2′-yl)pyridin-2-yl]butanamide] | 4.6 | 4.5
Cn1cc(CC(F)(F)F)c2[nH]c(-c3ccnc(NC(=O)C(CC(F)F)c4ccc(F)cc4)c3)c(-c3ccc(F)cc3)c2c1=O (racemic) [Example 26, 4,4-difluoro-2-(4-fluorophenyl)-N-{4-[3-(4-fluorophenyl)-5-methyl-4-oxo-7-(2,2,2-trifluoroethyl)-4,5-dihydro-1H-pyrrolo[3,2-c]pyridin-2-yl]pyridin-2-yl}butanamide] | 11 | 7.1
Cc1cn(C)c(=O)c2c(-c3ccc(F)cc3)c(-c3ccnc(NC(=O)C(C)c4ccc(F)cc4)c3)[nH]c12 (single isomer, unassigned; (+)) [Example 32, (+)-2-(4-fluorophenyl)-N-{4-[3-(4-fluorophenyl)-5,7-dimethyl-4-oxo-4,5-dihydro-1H-pyrrolo[3,2-c]pyridin-2-yl]pyridin-2-yl}propanamide] | 4.4 | 3.6
CC1CN(C)C(=O)c2c1[nH]c(-c1ccnc(NC(=O)C(CC(F)F)c3ccc(F)cc3)c1)c2-c1ccc(F)cc1 (centres unmarked) [Example 33, 4,4-difluoro-2-(4-fluorophenyl)-N-{4-[3-(4-fluorophenyl)-5,7-dimethyl-4-oxo-4,5,6,7-tetrahydro-1H-pyrrolo[3,2-c]pyridin-2-yl]pyridin-2-yl}butanamide] | 4.3 | 4.3
CC(C(=O)Nc1cc(-c2[nH]c3c(c2-c2ccccc2)C(=O)N(C)C2(CCC2)C3)ccn1)c1ccc(F)cc1 (single isomer, unassigned; (-)) [Example 53, (−)-2-(4-fluorophenyl)-N-[4-(5′-methyl-4′-oxo-3′-phenyl-1′,4′,5′,7′-tetrahydrospiro[cyclobutane-1,6′-pyrrolo[3,2-c]pyridin]-2′-yl)pyridin-2-yl]propanamide] | 21 | 16
CN1C(=O)c2c([nH]c(-c3ccnc(NC(=O)C(CC(F)F)c4ccc(F)cc4)c3)c2-c2ccccc2)CC12CCC2 (single isomer, unassigned; (-)) [Example 50, (−)-4,4-difluoro-2-(4-fluorophenyl)-N-[4-(5′-methyl-4′-oxo-3′-phenyl-1′,4′,5′,7′-tetrahydrospiro-[cyclobutane-1,6′-pyrrolo[3,2-c]pyridin]-2′-yl)pyridin-2-yl]butanamide] | 12 | 9.8
CC(C(=O)Nc1cc(-c2[nH]c3c(c2-c2ccccc2)C(=O)N(C)CC3CC2CC2)ccn1)c1ccc(F)cc1 (centres unmarked) [Example 57, N-{4-[7-(cyclopropylmethyl)-5-methyl-4-oxo-3-phenyl-4,5,6,7-tetrahydro-1H-pyrrolo[3,2-c]pyridin-2-yl]pyridin-2-yl}-2-(4-fluorophenyl)propanamide] | 4.5 | 2.9
CC(C(=O)Nc1cc(-c2[nH]c3c(c2-c2ccc(F)cc2)C(=O)N(C)CC3CC(F)(F)F)ccn1)c1ccc(F)cc1 (centres unmarked) [Example 21, 2-(4-fluorophenyl)-N-{4-[3-(4-fluorophenyl)-5-methyl-4-oxo-7-(2,2,2-trifluoroethyl)-4,5,6,7-tetrahydro-1H-pyrrolo[3,2-c]pyridin-2-yl]pyridin-2-yl}propanamide] | 8.6 | 6.6
CN1CC(CC2CC2)c2[nH]c(-c3ccnc(NC(=O)Cc4ccc(F)cc4)c3)c(-c3ccc(F)cc3)c2C1=O (racemic) [Example 61, N-{4-[7-(cyclopropylmethyl)-3-(4-fluorophenyl)-5-methyl-4-oxo-4,5,6,7-tetrahydro-1H-pyrrolo[3,2-c]pyridin-2-yl]pyridin-2-yl}-2-(4-fluorophenyl)acetamide] | 2 | 1.8
Cc1cn(C)c(=O)c2c(-c3ccc(F)cc3)c(-c3ccnc(NC(=O)C(CC(F)F)c4ccc(F)cc4)c3)[nH]c12 (single isomer, unassigned; (-)) [Example 35, (−)-4,4-difluoro-2-(4-fluorophenyl)-N-{4-[3-(4-fluorophenyl)-5,7-dimethyl-4-oxo-4,5-dihydro-1H-pyrrolo[3,2-c]pyridin-2-yl]pyridin-2-yl}butanamide] | 66 | 22
CN1CCc2[nH]c(-c3ccnc(NC(=O)C(CC(F)F)c4ccc(F)cc4)c3)c(-c3cccnc3)c2C1=O (single isomer, unassigned) [Example 10, 4,4-difluoro-2-(4-fluorophenyl)-N-{4-[5-methyl-4-oxo-3-(pyridin-3-yl)-4,5,6,7-tetrahydro-1H-pyrrolo[3,2-c]pyridin-2-yl]pyridin-2-yl}butanamide] | 110 | 64
CC1CN(C)C(=O)c2c1[nH]c(-c1ccnc(NC(=O)C(C)c3ccc(F)cc3)c1)c2-c1ccccc1 (centres unmarked) [Example 37, N-{4-[5,7-dimethyl-4-oxo-3-phenyl-4,5,6,7-tetrahydro-1H-pyrrolo[3,2-c]pyridin-2-yl]pyridin-2-yl}-2-(4-fluorophenyl)propanamide] | 3.1 | 4.1
CC(C(=O)Nc1cc(-c2[nH]c3c(CC(F)(F)F)cn(C)c(=O)c3c2-c2ccccc2)ccn1)c1ccc(F)cc1 (single isomer, unassigned; (-)) [Example 16, (−)-2-(4-fluorophenyl)-N-{4-[5-methyl-4-oxo-3-phenyl-7-(2,2,2-trifluoroethyl)-4,5-dihydro-1H-pyrrolo[3,2-c]pyridin-2-yl]pyridin-2-yl}propanamide] | 7.7 | 4.4
CN1CC(CC2CC2)c2[nH]c(-c3ccnc(NC(=O)Cc4ccc(F)cc4)c3)c(-c3ccccc3)c2C1=O (racemic) [Example 55, N-{4-[7-(cyclopropylmethyl)-5-methyl-4-oxo-3-phenyl-4,5,6,7-tetrahydro-1H-pyrrolo[3,2-c]pyridin-2-yl]pyridin-2-yl}-2-(4-fluorophenyl)acetamide] | 2 | 2.2
CC1CN(C)C(=O)c2c1[nH]c(-c1ccnc(NC(=O)C(C)c3ccc(F)cc3)c1)c2-c1ccc(F)cc1 (centres unmarked) [Example 29, 2-(4-fluorophenyl)-N-{4-[3-(4-fluorophenyl)-5,7-dimethyl-4-oxo-4,5,6,7-tetrahydro-1H-pyrrolo[3,2-c]pyridin-2-yl]pyridin-2-yl}propanamide] | 2.9 | 4.1
CC1(C)CNC(=O)c2c1[nH]c(-c1ccnc(NC(=O)C(CC(F)F)c3ccc(F)cc3)c1)c2-c1ccccc1 (single isomer, unassigned) [Example 44, N-[4-(7,7-dimethyl-4-oxo-3-phenyl-4,5,6,7-tetrahydro-1H-pyrrolo[3,2-c]pyridin-2-yl)pyridin-2-yl]-4,4-difluoro-2-(4-fluorophenyl)butanamide] | 11 | 12
Cc1cn(C)c(=O)c2c(-c3ccc(F)cc3)c(-c3ccnc(NC(=O)C(C)c4ccc(F)cc4)c3)[nH]c12 (racemic) [Example 30, 2-(4-fluorophenyl)-N-{4-[3-(4-fluorophenyl)-5,7-dimethyl-4-oxo-4,5-dihydro-1H-pyrrolo[3,2-c]pyridin-2-yl]pyridin-2-yl}propanamide] | 5.7 | 3.8
Cn1cc(CC(F)(F)F)c2[nH]c(-c3ccnc(NC(=O)C(CC(F)F)c4ccc(F)cc4)c3)c(-c3ccc(F)cc3)c2c1=O (single isomer, unassigned) [Example 28, 4,4-difluoro-2-(4-fluorophenyl)-N-{4-[3-(4-fluorophenyl)-5-methyl-4-oxo-7-(2,2,2-trifluoroethyl)-4,5-dihydro-1H-pyrrolo[3,2-c]pyridin-2-yl]pyridin-2-yl}butanamide] | 6.1 | 5
Cn1cc(CC2CC2)c2[nH]c(-c3ccnc(NC(=O)C(CC(F)F)c4ccc(F)cc4)c3)c(-c3ccccc3)c2c1=O (racemic) [Example 60, N-{4-[7-(cyclopropylmethyl)-5-methyl-4-oxo-3-phenyl-4,5-dihydro-1H-pyrrolo[3,2-c]pyridin-2-yl]pyridin-2-yl}-4,4-difluoro-2-(4-fluorophenyl)butanamide] | 15 | 9.5
